Data set [1] has as its target CarD·RNAP binding (CarD association with RPo).
Data set [2] is described as follows: Turbidity test (OD620) for aggregation. The class given is physicochemical.
A further data set has as its system RNAP. The note with it: cited from earlier work.

Here are results for 3 molecules from PMC7718890 (Scientific Reports, 2020).

Where “and” joins values, the source holds several entries; their conditions need not be identical. Equal values may be shown once. Read-outs that look alike come from different tables or passages of the source.

Sequence of CarD·RNAP binding (CarD association with RPo) (P9WGY5 whole entry): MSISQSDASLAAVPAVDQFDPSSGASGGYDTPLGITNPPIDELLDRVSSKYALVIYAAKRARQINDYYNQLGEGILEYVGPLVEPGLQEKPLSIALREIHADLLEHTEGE
Sequence of CarD·RNAP binding (CarD association with RPo) (P9WGI1 whole entry, further chain): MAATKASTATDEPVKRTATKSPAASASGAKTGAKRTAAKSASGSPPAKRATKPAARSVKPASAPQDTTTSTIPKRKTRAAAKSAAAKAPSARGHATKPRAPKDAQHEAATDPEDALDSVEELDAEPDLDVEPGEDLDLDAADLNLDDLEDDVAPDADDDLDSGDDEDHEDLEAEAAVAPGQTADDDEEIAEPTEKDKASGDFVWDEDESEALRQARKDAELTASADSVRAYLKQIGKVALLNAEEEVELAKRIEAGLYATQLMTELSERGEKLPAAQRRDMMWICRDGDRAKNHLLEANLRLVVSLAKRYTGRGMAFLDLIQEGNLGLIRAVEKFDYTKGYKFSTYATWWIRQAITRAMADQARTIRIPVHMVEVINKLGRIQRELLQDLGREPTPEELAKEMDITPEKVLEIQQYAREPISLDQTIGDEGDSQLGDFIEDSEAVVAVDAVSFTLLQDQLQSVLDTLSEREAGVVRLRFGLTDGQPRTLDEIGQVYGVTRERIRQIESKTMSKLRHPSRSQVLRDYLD
Sequence of CarD·RNAP binding (CarD association with RPo) (P9WGY7 whole entry, further chain): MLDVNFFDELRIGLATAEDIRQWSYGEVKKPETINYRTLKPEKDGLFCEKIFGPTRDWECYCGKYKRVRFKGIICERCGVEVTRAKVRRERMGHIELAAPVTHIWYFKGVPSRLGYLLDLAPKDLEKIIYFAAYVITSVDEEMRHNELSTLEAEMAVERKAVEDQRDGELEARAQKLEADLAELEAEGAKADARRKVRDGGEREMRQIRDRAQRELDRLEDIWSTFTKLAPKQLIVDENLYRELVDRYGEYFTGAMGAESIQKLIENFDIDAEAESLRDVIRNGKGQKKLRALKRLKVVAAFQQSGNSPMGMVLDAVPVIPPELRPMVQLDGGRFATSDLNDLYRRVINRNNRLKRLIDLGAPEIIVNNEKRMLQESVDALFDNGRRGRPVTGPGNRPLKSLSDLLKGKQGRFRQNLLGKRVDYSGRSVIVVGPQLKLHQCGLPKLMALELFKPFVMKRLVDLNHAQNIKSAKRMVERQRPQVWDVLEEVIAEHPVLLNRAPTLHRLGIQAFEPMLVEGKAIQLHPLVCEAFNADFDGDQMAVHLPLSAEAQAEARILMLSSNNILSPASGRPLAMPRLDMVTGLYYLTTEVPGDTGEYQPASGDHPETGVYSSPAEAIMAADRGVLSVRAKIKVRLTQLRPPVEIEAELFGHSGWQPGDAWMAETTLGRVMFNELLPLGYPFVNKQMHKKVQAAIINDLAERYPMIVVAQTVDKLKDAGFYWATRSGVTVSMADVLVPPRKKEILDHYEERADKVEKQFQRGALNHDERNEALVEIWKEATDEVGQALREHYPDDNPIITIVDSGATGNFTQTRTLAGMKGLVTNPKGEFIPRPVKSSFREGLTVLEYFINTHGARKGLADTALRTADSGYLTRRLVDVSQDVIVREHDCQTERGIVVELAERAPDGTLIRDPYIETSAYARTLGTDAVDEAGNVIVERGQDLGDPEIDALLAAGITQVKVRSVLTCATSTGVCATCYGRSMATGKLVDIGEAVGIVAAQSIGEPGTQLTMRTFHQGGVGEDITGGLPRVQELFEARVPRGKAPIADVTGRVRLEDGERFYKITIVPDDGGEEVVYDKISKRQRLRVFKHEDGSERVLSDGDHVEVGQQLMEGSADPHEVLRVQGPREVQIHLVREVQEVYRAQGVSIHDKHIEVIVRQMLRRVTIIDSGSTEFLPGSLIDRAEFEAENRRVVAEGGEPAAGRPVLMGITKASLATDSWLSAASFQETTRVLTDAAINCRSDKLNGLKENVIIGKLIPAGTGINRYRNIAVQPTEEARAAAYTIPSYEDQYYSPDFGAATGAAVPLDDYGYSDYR
Sequence of CarD·RNAP binding (CarD association with RPo) (P9WGY9 whole entry, further chain): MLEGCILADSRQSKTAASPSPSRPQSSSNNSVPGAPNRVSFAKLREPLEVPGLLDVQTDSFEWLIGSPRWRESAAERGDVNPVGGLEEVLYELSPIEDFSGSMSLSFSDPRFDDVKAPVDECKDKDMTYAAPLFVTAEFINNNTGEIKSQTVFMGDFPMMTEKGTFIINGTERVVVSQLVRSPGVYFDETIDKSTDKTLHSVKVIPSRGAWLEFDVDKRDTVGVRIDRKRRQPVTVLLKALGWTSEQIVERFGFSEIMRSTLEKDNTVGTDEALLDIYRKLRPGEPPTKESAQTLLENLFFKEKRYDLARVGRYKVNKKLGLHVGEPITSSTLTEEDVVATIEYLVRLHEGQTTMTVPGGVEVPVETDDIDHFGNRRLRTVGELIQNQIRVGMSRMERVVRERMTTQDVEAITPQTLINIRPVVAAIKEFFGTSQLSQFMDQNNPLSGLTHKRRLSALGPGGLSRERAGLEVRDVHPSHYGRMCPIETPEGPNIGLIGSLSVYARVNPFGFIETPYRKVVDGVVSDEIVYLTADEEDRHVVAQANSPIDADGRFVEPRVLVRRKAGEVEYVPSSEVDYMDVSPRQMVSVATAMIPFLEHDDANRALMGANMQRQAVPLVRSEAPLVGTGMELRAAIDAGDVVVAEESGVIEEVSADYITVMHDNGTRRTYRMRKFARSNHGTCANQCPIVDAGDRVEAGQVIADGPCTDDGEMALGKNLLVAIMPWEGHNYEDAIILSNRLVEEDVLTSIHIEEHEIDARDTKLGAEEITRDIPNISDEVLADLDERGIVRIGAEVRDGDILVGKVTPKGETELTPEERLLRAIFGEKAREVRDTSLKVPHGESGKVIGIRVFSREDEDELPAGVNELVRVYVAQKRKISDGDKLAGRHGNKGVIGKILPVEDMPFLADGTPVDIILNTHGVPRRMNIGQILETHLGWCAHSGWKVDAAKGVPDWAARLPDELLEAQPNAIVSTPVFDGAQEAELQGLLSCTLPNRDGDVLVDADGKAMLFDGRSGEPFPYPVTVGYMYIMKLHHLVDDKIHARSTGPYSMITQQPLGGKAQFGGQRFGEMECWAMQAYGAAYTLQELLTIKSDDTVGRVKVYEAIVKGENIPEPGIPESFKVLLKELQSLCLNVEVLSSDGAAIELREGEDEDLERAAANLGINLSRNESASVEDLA
Sequence of CarD·RNAP binding (CarD association with RPo) (P9WGZ1 whole entry, further chain): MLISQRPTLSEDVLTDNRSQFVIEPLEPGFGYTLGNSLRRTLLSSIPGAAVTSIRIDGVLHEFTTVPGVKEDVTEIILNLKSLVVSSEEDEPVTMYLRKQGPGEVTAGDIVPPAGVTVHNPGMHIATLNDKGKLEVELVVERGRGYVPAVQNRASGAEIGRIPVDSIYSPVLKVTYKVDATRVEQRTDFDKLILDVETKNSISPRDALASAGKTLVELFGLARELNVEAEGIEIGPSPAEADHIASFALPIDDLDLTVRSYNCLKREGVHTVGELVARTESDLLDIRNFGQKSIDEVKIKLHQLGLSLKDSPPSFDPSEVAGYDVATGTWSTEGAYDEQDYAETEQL

One may read the IC50 as the concentration that gives 50% inhibition. Turning to `O=C(O)c1ccc(-c2nc3ccc(-c4ccc5nc(-c6ccc(C(=O)O)cc6)[nH]c5c4)cc3[nH]2)cc1` [CCG-249580], the half-inhibitory concentration (IC50) in data set [1] is 32 µM and 45 µM. The “Concentration above which compound is prone to aggregation (turbidity curve)” value in data set [2] is reported as “higher than 34 µM”.

In data set [1], `Cc1cc2c(NC(=O)Nc3ccccc3)cccc2nn1` [CCG-237488] returned an IC50 of 20 µM.

As for `CCc1c(Cl)c(O)c(Cl)c(O)c1C(=O)O[C@H]1[C@H](O)[C@H](OC)[C@H](OC/C2=C\C=C\C[C@H](O)/C(C)=C/[C@H](CC)[C@@H](O[C@@H]3OC(C)(C)[C@@H](OC(=O)C(C)C)[C@H](O)[C@@H]3O)/C(C)=C/C(C)=C/C[C@@H]([C@@H](C)O)OC2=O)O[C@@H]1C` [Fidaxomicin], the IC50 is 0.21 µM in the data set with RNAP (read-out: IC50 In Vitro Transcription +RbpA) and 7 µM in the data set with RNAP (read-out: IC50 In Vitro Transcription -RbpA).
